Test system: collagen-induced arthritis (CIA) model rats
Test: Collagen-induced arthritis (CIA) model: foot volume and arthritis score
Type: in vivo, DA/Slc rats
Method: For 9 weeks-old female DA/Slc rats, under isoflurane anesthesia employing a simplified inhalation anesthesia device for animals (model type: NARCOBIT-E (type II), Natsume Seisakusho Co., Ltd.), the tail root which is the administration site was shaved with an electric shaver, and 0.05 mL in each of left and right sides of the tail root of all animals for a total of 0.1 mL of the symptom evoking substance administration fluid was intracutaneously administrated with a syringe (Terumo Corporation) and an injection needle (Terumo Corporation). The symptom evoking substance administration fluid was prepared by adding bovine type-II collagen and an equal amount of Incomplete Freund Adjuvant to an interchangeable glass syringe (TOP Corporation), and then mixing well.
The symptom evoking substance was administered only on Day 0, and each test substance was administered before the administration of the symptom evoking substance on the first day. MTX was suspended in 0.5 w/v % methylcellulose 400 solution (MC). ALA employed was aminolevulinic acid hydrochloride, and weights shown below are weights as aminolevulinic acid hydrochloride. […]
For measurement of foot volume, the foot volumes of left and right posterior limbs were each measured on Days 0 (before grouping), 4, 7, 11, 14, and 18 with a Plethysmometer (model type: MK-101P, Muromachi Kikai Co., Ltd.). The foot volume was measured three times per foot, and the average value of the three was calculated. The foot volume of the other foot was similarly measured. The foot volume measurement value of one individual was calculated with the following mathematical formula. […]
The measurement value before grouping was set as the Pre-value and the measurement value at each measurement point after grouping was set as the Post-value, and the value of increase in foot volume (A mL) was calculated by Post-value-Pre-value for each individual.
The arthritis score measurement was measured on each of Days 0 (before grouping), 4, 7, 11, 14, and 18. […] Note that the total sum of left and right arthritis scores was calculated as the score for that individual. […]

[1] = Day 18, oral once a day for 18 days, MTX 0.02 mg/kg, ALA 100 mg/kg, SFC 157 mg/kg

Structure (SMILES): CN(Cc1cnc2nc(N)nc(N)c2n1)c1ccc(C(=O)N[C@@H](CCC(=O)O)C(=O)O)cc1 [MTX, (S)-2-(4-(((2,4-diaminopteridin-6-yl)methyl)methylamino)benzamido) pentanedioic acid]
- intergroup difference to Group 5 (control) in arthritis score [1]: 1.5
- intergroup difference to Group 5 (control) in value of increase in foot volume [1]: 0.16 mL
- anti-inflammatory effect in CIA model rats (Group 1, only MTX 0.02 mg/kg oral daily): a certain level of anti-inflammatory effect was seen

Reference: patent publication US20250262179A1, “PHARMACEUTICAL COMPOSITION FOR PREVENTING AND/OR TREATING AUTOIMMUNE DISEASES” (NATIONAL CENTER FOR CHILD HEALTH AND DEVELOPMENT, priority 2022, published 2025)
